Experimental data: patent US20210227837A1, “NATAMYCIN FOR THE PRESERVATION OF A BAKED PRODUCT” (DSM IP ASSETS B.V., priority 2018, published 2021)

Test: Stability of natamycin solutions in aqueous potassium sorbate (residual natamycin by HPLC)
Assay type: physicochemical
Description: Natamycin concentrations were determined using […] as follows. • HPLC system: Waters iClass • Column: Waters Symmetry C18, 4.6×150 mm, 3.5 μm, Part No. WAT200632, Column no. 1483, Lot no. 0198313011 • Column temperature: 25° C. • Eluent A: 50 mM ammonium acetate buffer pH 5.8 (with acetic acid) • Eluent B: Acetonitrile • Wash: 60% acetonitrile/40% water (v/v) • Injection volume: 10 μl • Injector temperature: 10° C. in darkness • Flow: 1 mL/min
The reverse phase HPLC uses a UV detector to determine the residual concentration of natamycin at 303 nm. A set of standard dilutions containing subsequently increasing concentrations of natamycin in methanol was made and from these a calibration curve was obtained. The concentration of natamycin should not exceed a concentration of 88 mg/L. Generally, the dilutions contained 20 mg of sample and […] of methanol.
To obtain a 1% solution, 33 mg of natamycin was used instead of 0.2 g and heating during dissolution was omitted, resulting in a salt/natamycin ratio of 45 (w/w) or 200 (mole/mole). Samples of the mixtures were analyzed over time by HPLC for residual natamycin concentration. The shelf life test of the mixtures was done by storage at low temperatures (4-7° C.) and ambient temperatures (20-24° C.).

C[C@@H]1C/C=C/C=C/C=C/C=C/[C@H](O[C@@H]2O[C@H](C)[C@@H](O)[C@H](N)[C@@H]2O)C[C@@H]2O[C@](O)(C[C@@H](O)C[C@H]3O[C@@H]3/C=C/C(=O)O1)C[C@H](O)[C@H]2C(=O)O [natamycin]
Residual natamycin (%) (4-7° C., pH 9.7, natamycin 6% (w/w), day 0): 103%
Residual natamycin (%) (4-7° C., pH 9.7, natamycin 6% (w/w), day 5): 103%
Residual natamycin (%) (4-7° C., pH 9.7, natamycin 6% (w/w), day 6): 99%
Residual natamycin (%) (4-7° C., pH 9.7, natamycin 6% (w/w), day 12): 100%
Residual natamycin (%) (4-7° C., pH 9.7, natamycin 6% (w/w), day 31): 92%
Residual natamycin (%) (4-7° C., pH 9.7, natamycin 6% (w/w), day 42): 92%
Residual natamycin (%) (4-7° C., pH 9.7, natamycin 6% (w/w), day 49): 88%
Residual natamycin (%) (4-7° C., pH 9.7, natamycin 6% (w/w), day 69): 80%
Residual natamycin (%) (20-24° C., pH 9.6, natamycin 6% (w/w), day 0): 105%
Residual natamycin (%) (20-24° C., pH 9.6, natamycin 6% (w/w), day 2): 104%
Residual natamycin (%) (20-24° C., pH 9.6, natamycin 6% (w/w), day 6): 98%
Residual natamycin (%) (20-24° C., pH 9.6, natamycin 6% (w/w), day 8): 98%
Residual natamycin (%) (20-24° C., pH 9.6, natamycin 6% (w/w), day 15): 97%
Residual natamycin (%) (20-24° C., pH 9.6, natamycin 6% (w/w), day 20): 95%
Residual natamycin (%) (20-24° C., pH 9.6, natamycin 6% (w/w), day 23): 93%
Residual natamycin (%) (20-24° C., pH 9.6, natamycin 6% (w/w), day 34): 81%
Residual natamycin (%) (20-24° C., pH 9.6, natamycin 6% (w/w), day 65): 73%
Residual natamycin (%) (20-24° C., pH 9.9, natamycin 1% (w/w), day 0): 104%
Residual natamycin (%) (20-24° C., pH 9.9, natamycin 1% (w/w), day 2): 101%
Residual natamycin (%) (20-24° C., pH 9.9, natamycin 1% (w/w), day 6): 97%
Residual natamycin (%) (20-24° C., pH 9.9, natamycin 1% (w/w), day 8): 94%
Residual natamycin (%) (20-24° C., pH 9.9, natamycin 1% (w/w), day 15): 88%
Residual natamycin (%) (20-24° C., pH 9.9, natamycin 1% (w/w), day 20): 79%
Residual natamycin (%) (20-24° C., pH 9.9, natamycin 1% (w/w), day 23): 80%
Residual natamycin (%) (20-24° C., pH 9.9, natamycin 1% (w/w), day 34): 62%
Residual natamycin (%) (20-24° C., pH 9.9, natamycin 1% (w/w), day 65): 45%
